Measurements from patent US4218472A, “Geminally disubstituted indene derivatives” (AB Kabi, priority 1977, dated 1980).
Read-outs that look alike come from different tables or passages of the source.

Columns and labels:
Assay type in all cases: cell-based
[1] = system: rat vas deferens; assay: Effect on Rat Isolated Vas Deferens; conditions: for Emax: read-out: max. effect, % of NA max.; for effect on rat vas deferens (in words): noradrenaline-like activity; for minimal effective concentration: read-out: threshold conc.
Description: Effect on Rat Isolated Vas Deferens
Male albino rats weighing 250-350 g were anaesthetized with diethyl ether and then decapitated. The vas deferens was removed, freed from mesenteric attachments and then suspended in Kreb's bicarbonate solution (Hukovic, 1961). Threads were attached to both ends of the organ. The distal part was tied to a fixed pin in the organ bath and the proximal part to a force displacement transducer connected to a recording system. […] The load on the organ was adjusted to 0.5 g. The vas deferens was allowed to stabilize for 15 minutes before dose-response curves were obtained.
The technique for making cumulative dose-response curves in accordance with van Rossum (1963) was employed. The stimulating drug, noradrenaline (NA), was added to the bath in a manner to achieve geometrically increasing concentrations in the organ bath without washings in between. After each injection of NA the organ was allowed to contract until a state of equilibrium had been reached, and then the next dose of NA was added. This procedure was repeated until no further increase in contraction was obtained. The dosage of NA was adapted to give a concentration step in the bath of 1/2 log 10. The tested concentration interval was 10^-8 -10^-4 M, 3.10^-4 M plus maximum effect at 3 10^-5 and 10^-4 M. Compounds of formula I, identified as 2-12, and comparison compounds 13-15, were tested by the same technique. The compounds conform to the formula below except where indicated for other values of R^1, R^2 and R^3.

[2] = system: aortic strip (rabbit); assay: Effect on aortic strip of rabbit; conditions: Oryctolagus cuniculus
Method: (§1) Effect on urethra strip of cat and aortic strip of rabbit Adult male and female cats weighing 2-5 kg were used. The animals were anaesthetized with pentobarbital, 30-50 mg/kg intraperitoneally. An abdominal incision was made and the bladder and urethra were dissected free and cut. The bladder and urethra were placed in Tyrode solution of room temperature. Care was taken to keep the tissue moist during the preparation. The bladder was cut away and the urethra was cut longitudinally. Segments of 2-3 mm width were mounted in an organ-bath with Tyrode solution at 37° C. and connected to a strain gauge transducer so that the isometric tension could be recorded. The preparation was maintained at pH 7.5 by bubbling a mixture of 93.5 volume-% O2 and 6.5 volume-% CO2 through the solution. This experimental set up thus allowed the recording of circular muscle activity as isometric tension changes. The initial tension was set at approximately 0.5 g. After mounting, the preparation was allowed 1 hour for acclimatization before starting the experiment. All recordings were made from the base line. The drugs were added directly to the organ-baths and cumulative dose-response curves were recorded. Noradrenaline has consistently been used as a reference drug for agonistic action. The substances tested as agonists were noradrenaline bitartrate (NA) and the above compound No. 3. […]

[3] = system: urethra strip (cat); assay: Effect on urethra strip of cat; conditions: Felis catus, isometric tension, Tyrode solution 37° C., pH 7.5
Method: as §1

[4] = rat isolated vas deferens, contraction relative to noradrenaline maximum
[5] = Rattus norvegicus, rat isolated vas deferens, cumulative dose-response, 31° C.
[6] = rat isolated vas deferens, cumulative dose-response, 31° C.

Compound | EC50 [1, 6] [µM] | minimal effective concentration [1, 5] [µM] | Emax [1, 4] [%] | further results
CNCCC1=CC2(CCCC2)c2ccccc21 [No. 15, reference compound] | – | – | – | Emax ([1]; Rattus norvegicus): 0%; effect on rat vas deferens (in words) [1]: effect disappears
2-tert.-Butylamino-1-[spiro(cyclopentane-1,1'-indene)-3'-yl]ethanol [Example 11] | – | – | – | max. effect, % of NA max. [1, 4]: 90%
NC[C@H](O)c1ccc(O)c(O)c1 [No. 1, noradrenaline, reference compound] | 30 | 1 | 100 | EC50 [2]: 0.18 µM; EC50 [3]: 27 µM
COc1ccc2c(c1)C(C(O)CN)=CC21CCCC1 (stereo not drawn) [No. 10, 2-Amino-1-[5'-methoxyspiro(cyclopentane-1,1'-indene)-3'-yl]-ethanol] | 50 | 5 | 65 | –
2-Isopropylamino-1-[spiro(cyclopentane-1,1'-indene)-3'-yl]ethanol [Example 12] | – | – | – | max. effect, % of NA max. [1, 4]: 35%
CNCC(O)C1CC2(CCCC2)c2ccccc21 (stereo not drawn) [No. 14, reference compound] | – | – | 0 | effect on rat vas deferens (in words) [1]: effect disappears
CN(C)CC(=O)C1=CC2(CCCC2)c2ccccc21 [No. 13, reference compound] | – | – | 0 | effect on rat vas deferens (in words) [1]: inactive
2-Pyrrolidino-1-[spiro)cyclopentane-1,1'-indene)-3'-yl]-ethanol [Example 5] | – | – | – | max. effect, % of NA max. [1, 4]: 50%; threshold conc. [1, 6]: 10^-5 - 10^-4 M

More lines, main results first:

EC50 [1, 6] [µM] | Compound | minimal effective concentration [1, 5] [µM] | Emax [1, 4] [%] | further results
1.5 | CCNCC(O)C1=CC2(CCCC2)c2ccccc21 (stereo not drawn) [No. 4, 2-Ethylamino-1-[spiro(cyclopentane-1,1'-indene)-3'-yl]ethanol] | 0.5 | 85 | –
4 | CC(C)NCC(O)C1=CC2(CCCC2)c2ccccc21 (stereo not drawn) [No. 6] | – | 90 | –
2 | CC1(C)C=C(C(O)CN)c2ccccc21 (stereo not drawn) [No. 8, 2-Amino-1-(1,1-dimethylindene-3-yl)ethanol] | 0.3 | 100 | –
15 | NCC(O)C1=CC2(CCCCC2)c2ccccc21 (stereo not drawn) [No. 9, 2-Amino-1-[spiro(cyclohexane-1,1'-indene)-3'-yl]ethanol] | 3 | 70 | –
40 | NCC(O)C1=CC2(CCCC2)c2ccccc21 (stereo not drawn) [No. 2, 2-Amino-1-[spiro(cyclopentane-1,1'-indene)-3'-yl]ethanol] | 0.1 | 100 | –
15 | NCC(O)C1=CC2(CCC2)c2ccccc21 (stereo not drawn) [No. 7] | – | 120 | –
0.15 | CNCC(O)C1=CC2(CCCC2)c2ccccc21 (racemic) [No. 3, 2-Methylamino-1-[spiro(cyclopentane-1,1'-indene)-3'-yl]ethanol] | 0.03 | 100 | EC50 [2]: 0.045 µM; EC50 [3]: 0.69 µM
